Laboratory results taken from article PMC2680961, “Homologous desensitization of signalling by the alpha (α) isoform of the human thromboxane A2 receptor: A specific role for nitric oxide signalling” (Biochimica et Biophysica Acta, 2007).

Key:
[1] = biological target: T1, TPα^T337,S340A (Homo sapiens, UniProt P21731, S340A/T337A); test: [3H]SQ29,548 radioligand binding, Scatchard analysis, HEK.TPα^T337,S340A
T1 construct: expressed in transfected cells
T1 sequence (P21731 1-343 T337A/S340A): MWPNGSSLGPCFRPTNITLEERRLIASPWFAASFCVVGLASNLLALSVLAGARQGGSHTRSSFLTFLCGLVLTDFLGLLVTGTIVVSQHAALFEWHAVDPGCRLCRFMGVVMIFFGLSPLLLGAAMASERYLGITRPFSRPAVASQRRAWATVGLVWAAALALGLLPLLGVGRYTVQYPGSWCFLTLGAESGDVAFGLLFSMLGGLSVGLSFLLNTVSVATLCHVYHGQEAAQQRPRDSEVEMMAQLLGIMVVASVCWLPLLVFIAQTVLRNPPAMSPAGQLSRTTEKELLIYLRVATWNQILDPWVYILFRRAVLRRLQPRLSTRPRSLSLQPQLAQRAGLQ
Experimental: Cells were harvested by centrifugation at 500×g at 4 °C for 5 min and washed three times with ice-cold Ca^2+/Mg^2+-free phosphate-buffered saline (PBS). TP radioligand binding assays were carried out at 30 °C for 30 min in 100 μl reactions in the presence of 0–40 nM [^3H] […] Protein determinations were carried out using the Bradford assay.
Radioligand binding and Scatchard analysis data were analysed using GraphPad Prisim V4.0 programme (GraphPad Software Inc., San Diego CA, USA). Statistical analyses were carried out using the unpaired Student's t test using the Statworks Analysis Package. p-values ≤ 0.01 indicated statistically significant differences.

[2] = biological target: T2, TP^Δ328 (Homo sapiens, UniProt P21731); test: Intracellular calcium mobilization, HEK.TP^Δ328 cells; type: cell-based; conditions: for Δ[Ca2+]i, U46619-induced: HEK.TP^Δ328
T2 construct: expressed in transfected cells
T2 sequence (P21731 1-328): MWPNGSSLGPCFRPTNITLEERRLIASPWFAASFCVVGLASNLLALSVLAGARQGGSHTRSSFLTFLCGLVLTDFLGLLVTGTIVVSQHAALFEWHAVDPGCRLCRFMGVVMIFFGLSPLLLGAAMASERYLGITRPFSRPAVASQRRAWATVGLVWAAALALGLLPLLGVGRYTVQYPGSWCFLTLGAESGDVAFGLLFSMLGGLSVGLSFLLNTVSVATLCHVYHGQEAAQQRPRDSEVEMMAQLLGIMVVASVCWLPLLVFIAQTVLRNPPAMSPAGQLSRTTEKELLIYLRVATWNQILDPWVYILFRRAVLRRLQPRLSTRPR
Experimental: Measurement of intracellular calcium mobilization ([Ca^2+]i) in FURA2/AM preloaded HEK 293 cell lines (2 × 10^6 cells/dish), each transiently co-transfected with pADVA (10 μg), and pCMV:Gαq (25 μg), was carried out as previously described. To investigate the effect of GRK2/βARK1 on TP-mediated [Ca^2+]i mobilization, HEK.TPα or HEK.TPβ cells (2 × 10^6 cells/dish) were co-transfected with pADVA (10 μg), pCMV:Gαq (25 μg) along with pRK5:βARK1^495–689 (25 μg), encoding a dominant negative form of GRK2/βARK1[39]. Approximately 48 h post-transfection, cells were harvested by scraping, washed twice in ice-cold PBS and resuspended in HBSSHB (modified Ca^2+/Mg^2+-free Hank's buffered salt solution, containing […], pH 7.67, 0.1% bovine serum albumin (BSA)) buffer at 10^7 cells/ml and incubated in the dark with 5 μM FURA2/AM for 45 min at 37 °C. Cells were collected by centrifugation (900×g, 5 min), washed once in an equal volume of HBSSHB, and were finally resuspended in HBSSHB buffer at 10^7 cells/ml and kept at room temperature in the dark for 40 min. For each measurement of [Ca^2+]i mobilization, aliquots of cells were diluted to 0.825 × 10^6 cells/ml in HBSSHB, 1 mM CaCl2 and FURA2 fluorescence was recorded (2 ml aliquots of cells) at 37^ °C with gentle stirring with a Perkin Elmer-Cetus LS50-B spectrofluorometer at excitation wavelengths of 340 nm and 380 nm and emission wavelength of 510 nm, respectively.
Cells were stimulated with the TP agonist U46619 (1 μM) and changes in [Ca^2+]i mobilization were monitored as a function of time. To assess agonist-mediated homologous desensitization, cells (0.825 × 10^6 cells/ml; 2 ml per assay) were stimulated with 1 μM U46619 (Primary stimulation) or, as a control, with the vehicle for 4 min; thereafter, cells were collected by centrifugation (900×g, 5 min); were washed twice in 2 ml HBSSHB, 1 mM CaCl2; and finally resuspended in 2 ml HBSSHB,1 mM CaCl2 and were left to recover over various time intervals (ranging from 0 to 60 min); thereafter, cells re-stimulated with 1 μM U46619 (Secondary stimulation) and changes in [Ca^2+]i mobilization were monitored as a function of time. To assess the role of protein kinase (PK) A, PKC or PKG on U46619-mediated desensitization of TPα signalling, cells were pre-incubated with the PKA inhibitor H-89 (10 μM), the PKC inhibitor GF 109203X (50 nM) or the PKG inhibitor KT 5823 (50 nM), for 15 min and respective kinase inhibitors were maintained throughout the primary/secondary U46619-stimulations and during the washes.
The vehicle had no effect on U46619-mediated [Ca^2+]i mobilization. Calibration of the signal was performed in each sample by adding 0.2% Triton X-100 to obtain the maximal fluorescence ratio (Rmax) and then 1 mM EGTA to obtain the minimal fluorescence ratio (Rmin). The ratio of the fluorescence at 340 nm to that at 380 nm is a measure of [Ca^2+]i, which assumes a Kd of 225 nM Ca^2+ for FURA2/AM. The results presented in the figures are representative data from at least three or four independent experiments and are plotted as changes in Ca^2+i mobilized (Δ[Ca^2+]i (nM)) as a function of time (s) upon ligand stimulation. Changes in [Ca^2+]i mobilization were determined by measuring peak rises in [Ca^2+]i mobilized (Δ[Ca^2+]i) and were calculated as mean changes in Δ[Ca^2+]i ± S.E.M. (nM).

Row | Structure (SMILES) | Bmax (pmol/mg protein ± S.E.M.) [1] | Δ[Ca2+]i, U46619-induced ([2]; primary stimulation, 1 μM U46619 4 min) | Δ[Ca2+]i, U46619-induced ([2]; secondary 1 μM U46619 at 15 min) | Δ[Ca2+]i, U46619-induced ([2]; secondary 1 μM U46619 at 60 min) | secondary U46619 [Ca2+]i response relative to primary response ([2]; TP^Δ328, restimulation at 15 min)
1 | O=C(O)CCC/C=C\C[C@@H]1[C@H](CNNC(=O)Nc2ccccc2)[C@H]2CC[C@@H]1O2 [SQ29,548] | 4.9 ± 0.04 pmol/mg protein |  |  |  | 
2 | CCCCC[C@H](O)/C=C/[C@@H]1[C@@H](C/C=C\CCCC(=O)O)[C@H]2CO[C@@H]1C2 [U46619] |  | 180 ± 5.6 nM | 158 ± 3.8 nM | 178 ± 6.7 nM | ~80%
